{"source": "patent US9932354B2", "about": "“Imidazo-oxadiazole and imidazo-thiadiazole derivatives” (Ares Trading S.A., priority 2012, dated 2018)", "key": {"[1]": {"tested_on": "Amyloid-β peptide release (AβTotal), HEK cells overexpressing APP (HEK-APP)", "assay": "Amyloid-β peptide release (AβTotal) assay, AlphaLISA on supernatant of HEK-APP cells", "assay_type": "cell-based", "conditions": "ratio Abtot vs Ab42, HEK-APP cells, 24 h"}, "[2]": {"tested_on": "Amyloid-β peptide release (Aβ42), HEK cells overexpressing APP (HEK-APP)", "assay": "Amyloid-β peptide release (Aβ42) assay, AlphaLISA on supernatant of HEK-APP cells", "assay_type": "cell-based", "conditions": "Homo sapiens, HEK293, 24 h incubation with compound, read-out: Ab42 IC50 Ranges", "method_in_brief": "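HEK-APP cells treated with compounds for 24 h at 37 °C, 5% CO2. Supernatant Aβ42 or total Aβ measured by AlphaLISA after 4.5 h with antibody beads (6E10 acceptor beads for total). IC50 values derived.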"}}, "note": "pIC50: −log10 of the molar value.", "data": [{"smiles": "Cc1cc(-c2nn3c(C)ncc3o2)ccc1NC(=O)Cc1cccc(Cl)c1", "note": "[Example 43, 2-(3-chlorophenyl)-N-(2-methyl-4-(5-methylimidazo[5,1-b][1,3,4]oxadiazol-2-yl)phenyl)acetamide]", "values": [{"measurement": "Abtot/Ab42 selectivity ranges", "setting": "[1]", "value": "c (c: 50 fold > selectivity ≥ 10 fold)"}, {"measurement": "pIC50", "setting": "[2]", "value": "5.66 to 6.00"}]}, {"smiles": "Cc1ncc2oc(-c3ccc(Nc4nccc(NCc5ccccc5C(F)(F)F)n4)cc3)nn12", "note": "[Example 74, N2-(4-(5-methylimidazo[5,1-b][1,3,4]oxadiazol-2-yl)phenyl)-N4-(2-(trifluoromethyl)benzyl)pyrimidine-2,4-diamine]", "values": [{"measurement": "Abtot/Ab42 selectivity ranges", "setting": "[1]", "value": "d (d: 10 fold > selectivity)"}, {"measurement": "pIC50", "setting": "[2]", "value": "5.66 to 6.00"}]}, {"smiles": "Cc1ncc2sc(C(=O)N(C)Cc3cccc(C(F)(F)F)c3)nn12", "note": "[Example 101, 5-Methyl-imidazo[5,1-b][1,3,4]thiadiazole-2-carboxylic acid methyl-(3-trifluoromethyl-benzyl)-amide]", "values": [{"measurement": "Abtot/Ab42 selectivity ranges", "setting": "[1]", "value": "d (d: 10 fold > selectivity)"}, {"measurement": "pIC50", "setting": "[2]", "value": "6.00 to 6.30"}]}, {"smiles": "COc1ccc(Cl)c(CC(=O)Nc2ccc(-c3nn4c(C)ncc4o3)cc2)c1F", "note": "[Example 69, 2-(6-chloro-2-fluoro-3-methoxyphenyl)-N-(4-(5-methylimidazo [5,1-b][1,3,4]oxadiazol-2-yl)phenyl)acetamide]", "values": [{"measurement": "Abtot/Ab42 selectivity ranges", "setting": "[1]", "value": "b (b: 100 fold > selectivity ≥ 50 fold)"}, {"measurement": "pIC50", "setting": "[2]", "value": "6.00 to 6.30"}]}, {"smiles": "Cc1ncc2sc(C(=O)N3CCCCC3Cc3ccccc3)nn12", "note": "(stereo not shown) [Example 117, (2-Benzyl-piperidin-1-yl)-(5-methyl-imidazo[5,1-b][1,3,4]thiadiazol-2-yl)-methanone]", "values": [{"measurement": "Abtot/Ab42 selectivity ranges", "setting": "[1]", "value": "d (d: 10 fold > selectivity)"}, {"measurement": "pIC50", "setting": "[2]", "value": "5.66 to 6.00"}]}, {"smiles": "Cc1cc(-c2nn3c(C)ncc3o2)ccc1NC(=O)Cc1cccc(C(F)(F)F)c1", "note": "[Example 41, N-(2-methyl-4-(5-methylimidazo[5,1-b][1,3,4]oxadiazol-2-yl)phenyl)-2-(3-(trifluoromethyl)phenyl)acetamide]", "values": [{"measurement": "Abtot/Ab42 selectivity ranges", "setting": "[1]", "value": "b (b: 100 fold > selectivity ≥ 50 fold)"}, {"measurement": "pIC50", "setting": "[2]", "value": "6.00 to 6.30"}]}, {"smiles": "Cc1ncc2oc(-c3ccc(NC(=O)Nc4cccc(C(F)(F)F)c4)cc3)nn12", "note": "[Example 52, 1-[4-(5-Methyl-imidazo[5,1-b][1,2,4]oxadiazol-2-yl)-phenyl]-3-(3-trifluoromethyl-phenyl)-urea]", "values": [{"measurement": "Abtot/Ab42 selectivity ranges", "setting": "[1]", "value": "d (d: 10 fold > selectivity)"}, {"measurement": "pIC50", "setting": "[2]", "value": "5.66 to 6.00"}]}, {"smiles": "Cc1ncc2oc(-c3ccc(NC(=O)C(C)c4cccc(C(F)(F)F)c4)cc3)nn12", "note": "(stereo not shown) [Example 55, N-(4-(5-methylimidazo[5,1-b][1,3,4]oxadiazol-2-yl)phenyl)-2-(3-(trifluoromethyl)phenyl)propanamide]", "values": [{"measurement": "Abtot/Ab42 selectivity ranges", "setting": "[1]", "value": "c (c: 50 fold > selectivity ≥ 10 fold)"}, {"measurement": "pIC50", "setting": "[2]", "value": "5.66 to 6.00"}]}, {"smiles": "Cc1ncc2sc(-c3ccc(NC(=O)Cc4cccc(C(F)(F)F)c4)cc3)nn12", "note": "[Example 100, N-[4-(5-Methyl-imidazo[5,1-b][1,3,4]thiadiazol-2-yl)-phenyl]-2-(3-trifluoromethyl-phenyl)-acetamide]", "values": [{"measurement": "Abtot/Ab42 selectivity ranges", "setting": "[1]", "value": "b (b: 100 fold > selectivity ≥ 50 fold)"}, {"measurement": "pIC50", "setting": "[2]", "value": "6.30 to 7.00"}]}, {"smiles": "COc1cc(NC(=O)Cc2cccc(Cl)c2)ccc1-c1nn2c(C)ncc2o1", "note": "[Example 33, 2-(3-chlorophenyl)-N-(3-methoxy-4-(5-methylimidazo[5,1-b] [1,3,4]oxadiazol-2-yl)phenyl)acetamide]", "values": [{"measurement": "Abtot/Ab42 selectivity ranges", "setting": "[1]", "value": "b (b: 100 fold > selectivity ≥ 50 fold)"}, {"measurement": "pIC50", "setting": "[2]", "value": "6.00 to 6.30"}]}, {"smiles": "Cc1ncc2sc(-c3ccc(C(=O)NCc4cccc5ccccc45)cc3)nn12", "note": "[Example 127, 4-(5-Methyl-imidazo[5,1-b][1,3,4]thiadiazol-2-yl)-N-naphthalen-1-ylmethyl-benzamide]", "values": [{"measurement": "Abtot/Ab42 selectivity ranges", "setting": "[1]", "value": "b (b: 100 fold > selectivity ≥ 50 fold)"}, {"measurement": "pIC50", "setting": "[2]", "value": "6.00 to 6.30"}]}, {"smiles": "Cc1ncc2oc(-c3ccc(NC(=O)Cc4ccc(Cl)c(Cl)c4)cc3)nn12", "note": "[Example 77, 2-(3,4-dichlorophenyl)-N-(4-(5-methylimidazo[5,1-b][1,3,4]oxadiazol-2-yl)phenyl)acetamide]", "values": [{"measurement": "Abtot/Ab42 selectivity ranges", "setting": "[1]", "value": "a (a: selectivity ≥ 100 fold)"}, {"measurement": "pIC50", "setting": "[2]", "value": "6.30 to 7.00"}]}, {"smiles": "Cc1ccc(C)c(CC(=O)Nc2ccc(-c3nn4c(C)ncc4o3)cc2)c1", "note": "[Example 50]", "values": [{"measurement": "Abtot/Ab42 selectivity ranges", "setting": "[1]", "value": "c (c: 50 fold > selectivity ≥ 10 fold)"}, {"measurement": "pIC50", "setting": "[2]", "value": "6.00 to 6.30"}]}, {"smiles": "Cc1ncc2sc(C(=O)N(Cc3ccccc3)CC(C)C)nn12", "note": "[Example 89, 5-Methyl-imidazo[5,1-b][1,3,4]thiadiazole-2-carboxylic acid benzyl-isobutyl-amide]", "values": [{"measurement": "Abtot/Ab42 selectivity ranges", "setting": "[1]", "value": "d (d: 10 fold > selectivity)"}, {"measurement": "pIC50", "setting": "[2]", "value": "6.30 to 7.00"}]}, {"smiles": "COc1cc(C(=O)NCc2cccc(C(F)(F)F)c2)ccc1-c1nn2c(C)ncc2o1", "note": "[Example 18, 3-Methoxy-4-(5-methyl-imidazo[5,1-b][1,2,4]oxadiazol-2-yl)-N-(3-trifluoromethyl-benzyl)-benzamide]", "values": [{"measurement": "Abtot/Ab42 selectivity ranges", "setting": "[1]", "value": "c (c: 50 fold > selectivity ≥ 10 fold)"}, {"measurement": "pIC50", "setting": "[2]", "value": "5.66 to 6.00"}]}, {"smiles": "CCOc1ccc(CC(=O)Nc2ccc(-c3nn4c(C)ncc4o3)cc2)cc1", "note": "[Example 8, 2-(4-Ethoxy-phenyl)-N-[4-(5-methyl-imidazo[5,1-b][1,2,4]oxadiazol-2-yl)-phenyl]-acetamide]", "values": [{"measurement": "Abtot/Ab42 selectivity ranges", "setting": "[1]", "value": "c (c: 50 fold > selectivity ≥ 10 fold)"}, {"measurement": "pIC50", "setting": "[2]", "value": "5.66 to 6.00"}]}, {"smiles": "Cc1ncc2oc(-c3ccc(Nc4nc5c(s4)CCCC5c4ccc(F)cc4)cc3)nn12", "note": "(stereo not shown) [Example 27, [4-(4-Fluoro-phenyl)-4,5,6,7-tetrahydro-benzothiazol-2-yl]-[4-(5-methyl-imidazo[5,1-b][1,2,4]oxadiazol-2-yl)-phenyl]-amine]", "values": [{"measurement": "Abtot/Ab42 selectivity ranges", "setting": "[1]", "value": "d (d: 10 fold > selectivity)"}, {"measurement": "pIC50", "setting": "[2]", "value": "5.66 to 6.00"}]}, {"smiles": "Cc1ncc2sc(C(=O)N3CCCCC3c3cccc(C(F)(F)F)c3)nn12", "note": "(stereo not shown) [Example 116, (5-Methyl-imidazo[5,1-b][1,3,4]thiadiazol-2-yl)-[2-(3-trifluoromethyl-phenyl)-piperidin-1-yl]-methanone]", "values": [{"measurement": "Abtot/Ab42 selectivity ranges", "setting": "[1]", "value": "d (d: 10 fold > selectivity)"}, {"measurement": "pIC50", "setting": "[2]", "value": "5.66 to 6.00"}]}, {"smiles": "Cc1ncc2oc(-c3ccc(NC(=O)Cc4ccc(F)cc4Cl)cc3)nn12", "note": "[Example 65, 2-(2-chloro-4-fluorophenyl)-N-(4-(5-methylimidazo[5,1-b][1,3,4]oxadiazol-2-yl)phenyl)acetamide]", "values": [{"measurement": "Abtot/Ab42 selectivity ranges", "setting": "[1]", "value": "c (c: 50 fold > selectivity ≥ 10 fold)"}, {"measurement": "pIC50", "setting": "[2]", "value": "5.66 to 6.00"}]}, {"smiles": "Cc1ncc2sc(C(=O)N(C)Cc3cccc(Cl)c3)nn12", "note": "[Example 95, 5-Methyl-imidazo[5,1-b][1,3,4]thiadiazole-2-carboxylic acid (3-chloro-benzyl)-methyl-amide]", "values": [{"measurement": "Abtot/Ab42 selectivity ranges", "setting": "[1]", "value": "d (d: 10 fold > selectivity)"}, {"measurement": "pIC50", "setting": "[2]", "value": "6.00 to 6.30"}]}, {"smiles": "Cc1ncc2sc(C(=O)NCCc3c[nH]c4ccccc34)nn12", "note": "[Example 94, 5-Methyl-imidazo[5,1-b][1,3,4]thiadiazole-2-carboxylic acid [2-(1H-indol-3-yl)-ethyl]-amide]", "values": [{"measurement": "Abtot/Ab42 selectivity ranges", "setting": "[1]", "value": "d (d: 10 fold > selectivity)"}, {"measurement": "pIC50", "setting": "[2]", "value": "6.00 to 6.30"}]}, {"smiles": "Cc1ncc2oc(-c3ccc(NC(=O)Cc4cccc(OCc5ccccc5)c4)cc3)nn12", "note": "[Example 70, 2-(3-(benzyloxy)phenyl)-N-(4-(5-methylimidazo[5,1-b][1,3,4]oxadiazol-2-yl)phenyl)acetamide]", "values": [{"measurement": "Abtot/Ab42 selectivity ranges", "setting": "[1]", "value": "c (c: 50 fold > selectivity ≥ 10 fold)"}, {"measurement": "pIC50", "setting": "[2]", "value": "5.66 to 6.00"}]}, {"smiles": "Cc1ncc2sc(C(=O)N3CCCCC3c3ccccc3)nn12", "note": "(stereo not shown) [Example 108, (5-Methyl-imidazo[5,1-b][1,3,4]thiadiazol-2-yl)-(2-phenyl-piperidin-1-yl)-methanone]", "values": [{"measurement": "Abtot/Ab42 selectivity ranges", "setting": "[1]", "value": "d (d: 10 fold > selectivity)"}, {"measurement": "pIC50", "setting": "[2]", "value": "6.00 to 6.30"}]}]}
